# Measured values as given in patent US11939299B1, “4-((2-(2-(2-(4-methoxyphenyl)-4,5-diphenyl-1H-imidazol-1-yl)acetyl)hydrazono)methyl)benzoic acid as an anti-cancer compound” (KING FAISAL UNIVERSITY, priority 2023, dated 2024).
# Key:
# Type in all cases: cell-based
# SF-295 = assay: Percentage growth inhibition of in vitro subpanel tumor cell lines, CNS cancer; details: Homo sapiens; SF-295 (CNS Cancer), 0.01 mM; read-out: Percentage growth inhibition (GI %)
# Description: (§1) The anticancer activity of 4-((2-(2-(2-(4-Methoxyphenyl)-4,5-diphenyl-1H-imidazol-1-yl)acetyl)hydrazono)methyl)benzoic acid was assessed against leukemia, non-small cell lung cancer, colon cancer, central nervous system (CNS) cancer, melanoma, ovarian cancer, renal cancer, prostate cancer, and breast cancer.
# (§2) Percentage growth inhibition (GI %) of in vitro subpanel tumor cell lines at 0.01 mM concentration for compound 4-((2-(2-(2-(4-Methoxyphenyl)-4,5-diphenyl-1H-imidazol-1-yl)acetyl)hydrazono)methyl)benzoic acid (Labeled as AE21 in the table) can be seen in Table 1 below.
# SNB-75 = assay: as above; details: Homo sapiens; SNB-75 (CNS Cancer), 0.01 mM; read-out: Percentage growth inhibition (GI %)
# Description: as §1, §2
# A498 = assay: Percentage growth inhibition of in vitro subpanel tumor cell lines, renal cancer; details: Homo sapiens, 0.01 mM, read-out: Percentage growth inhibition (GI %)
# Description: as §1, §2
# UO-31 = assay: as above; details: Homo sapiens; UO-31 (Renal Cancer), 0.01 mM; read-out: Percentage growth inhibition (GI %)
# Description: as §1, §2
# CAKI-1 = assay: as above; details: Homo sapiens; CAKI-1 (Renal Cancer), 0.01 mM; read-out: Percentage growth inhibition (GI %)
# Description: as §1, §2
# NCI-H226 = assay: Percentage growth inhibition of in vitro subpanel tumor cell lines, non-small cell lung cancer; details: Homo sapiens, 0.01 mM, read-out: Percentage growth inhibition (GI %)
# Description: as §1, §2
# NCI-H522 = assay: as above; details: Homo sapiens, 0.01 mM, read-out: Percentage growth inhibition (GI %)
# Description: as §1, §2
# NCI-H322M = assay: as above; details: Homo sapiens, 0.01 mM, read-out: Percentage growth inhibition (GI %)
# Description: as §1, §2
# EKVX = assay: as above; details: Homo sapiens, 0.01 mM, read-out: Percentage growth inhibition (GI %)
# Description: as §1, §2
# NCI-H23 = assay: as above; details: Homo sapiens, 0.01 mM, read-out: Percentage growth inhibition (GI %)
# Description: as §1, §2
# tumor cell lines = assay: Anticancer activity against tumor cell lines (panel, overall statement); details: some tumor cell lines, 0.01 mM concentration
# Description: as §1, §2
# PC-3 = assay: Percentage growth inhibition of in vitro subpanel tumor cell lines, prostate cancer; details: Homo sapiens; PC-3 (Prostate Cancer), 0.01 mM; read-out: Percentage growth inhibition (GI %)
# Description: as §1, §2
# MCF7 = assay: Percentage growth inhibition of in vitro subpanel tumor cell lines, breast cancer; details: Homo sapiens, 0.01 mM, read-out: Percentage growth inhibition (GI %)
# Description: as §1, §2
# HS 578T = assay: as above; details: Homo sapiens; HS 578T (Breast Cancer), 0.01 mM; read-out: Percentage growth inhibition (GI %)
# Description: as §1, §2
# CCRF-CEM = assay: Percentage growth inhibition of in vitro subpanel tumor cell lines, leukemia; details: Homo sapiens, 0.01 mM, read-out: Percentage growth inhibition (GI %)
# Description: as §1, §2
# RPMI-8226 = assay: as above; details: Homo sapiens; RPMI-8226 (Leukemia), 0.01 mM; read-out: Percentage growth inhibition (GI %)
# Description: as §1, §2
# MOLT-4 = assay: as above; details: Homo sapiens; MOLT-4 (Leukemia), 0.01 mM; read-out: Percentage growth inhibition (GI %)
# Description: as §1, §2
# SK-MEL-5 = assay: Percentage growth inhibition of in vitro subpanel tumor cell lines, melanoma; details: Homo sapiens; SK-MEL-5 (Melanoma), 0.01 mM; read-out: Percentage growth inhibition (GI %)
# Description: as §1, §2
# LOX IMVI = assay: as above; details: Homo sapiens, 0.01 mM, read-out: Percentage growth inhibition (GI %)
# Description: as §1, §2
# MDA-MB-435 = assay: as above; details: Homo sapiens; MDA-MB-435 (Melanoma), 0.01 mM; read-out: Percentage growth inhibition (GI %)
# Description: as §1, §2
# OVCAR-4 = assay: Percentage growth inhibition of in vitro subpanel tumor cell lines, ovarian cancer; details: Homo sapiens; OVCAR-4 (Ovarian Cancer), 0.01 mM; read-out: Percentage growth inhibition (GI %)
# Description: as §1, §2
# HCT-15 = assay: Percentage growth inhibition of in vitro subpanel tumor cell lines, colon cancer; details: Homo sapiens; HCT-15 (Colon Cancer), 0.01 mM; read-out: Percentage growth inhibition (GI %)
# Description: as §1, §2
structure (smiles),measurement,setting,value
"COc1ccc(-c2nc(-c3ccccc3)c(-c3ccccc3)n2CC(=O)N/N=C/c2ccc(C(=O)O)cc2)cc1 [AE21, 4-((2-(2-(2-(4-Methoxyphenyl)-4,5-diphenyl-1H-imidazol-1-yl)acetyl)hydrazono)methyl)benzoic acid]",inhibition at 10 µM,SF-295,5.54%
same,inhibition at 10 µM,SNB-75,18.9%
same,inhibition at 10 µM,A498,13.5%
same,inhibition at 10 µM,UO-31,0.61%
same,inhibition at 10 µM,CAKI-1,6.23%
same,inhibition at 10 µM,NCI-H226,6.62%
same,inhibition at 10 µM,NCI-H522,12.4%
same,inhibition at 10 µM,NCI-H322M,0.85%
same,inhibition at 10 µM,EKVX,10.3%
same,inhibition at 10 µM,NCI-H23,4.19%
same,anticancer activity,tumor cell lines,moderate efficiency
same,inhibition at 10 µM,PC-3,2.68%
same,inhibition at 10 µM,MCF7,13.4%
same,inhibition at 10 µM,HS 578T,18.6%
same,inhibition at 10 µM,CCRF-CEM,2.61%
same,inhibition at 10 µM,RPMI-8226,0.34%
same,inhibition at 10 µM,MOLT-4,4.6%
same,inhibition at 10 µM,SK-MEL-5,1.29%
same,inhibition at 10 µM,LOX IMVI,5.6%
same,inhibition at 10 µM,MDA-MB-435,9.17%
same,inhibition at 10 µM,OVCAR-4,13.7%
same,inhibition at 10 µM,HCT-15,3.82%
